Experiments:
Type in all cases: cell-based
Bacteroides [1] = test: Batch culture growth of Bacteroides, titers on selective agar (Example 1); conditions: carbohydrate-deficient PYG batch culture, 37° C., anaerobic; supplement in place of glucose 3.0 g/L; FIG. 1
Protocol: (§1) Identical inoculua (A600∇1.0) of overnight cultures (PYG broth, 37° C., anaerobic) of each organism (Clostridia, Bacteroides, or B. lactis) were grown in batch culture (37° C., anaerobic) with constant stirring. Carbohydrate-deficient batch culture media (PYG) was supplemented with either glucose (3.0 g/L), oligofructose (FOS at 3.0 g/L), sialyllactose (3′- or 6′-sialyllactose at […]), or oligofructose plus sialyllactose (3.0 g/l and 100 mg/L, respectively). Growth was monitored at various time points (see FIG. 1) by determining the titers of the bacteria on selective agar (BIM-25 agar for Bifidobacteria and Wilkens-Chalgren agar for Clostridia and Bacteroides).

Clostridia [2] = test: Batch culture growth of Clostridia, titers on selective agar (Example 1); conditions: carbohydrate-deficient PYG batch culture, 37° C., anaerobic; supplement in place of glucose 3.0 g/L; FIG. 1
Protocol: as §1

B. lactis = test: Media pH of Bifidobacteria batch culture (Example 3); conditions: PYG batch culture, 37° C., anaerobic; pH monitored at various time points; FIG. 3
Protocol: (§2) Identical inoculua (A600∇1.0) of overnight cultures (PYG broth, 37° C., anaerobic) of each organism was grown in batch culture (37° C., anaerobic) with constant stirring. Carbohydrate-deficient batch culture media (PYG) was supplemented as above. The media pH were monitored at various time points.

Clostridia [3] = test: Media pH of Clostridia batch culture (Example 3); conditions: PYG batch culture, 37° C., anaerobic; pH monitored at various time points; FIG. 3
Protocol: as §2

Bacteroides [4] = test: Media pH of Bacteroides batch culture (Example 3); conditions: PYG batch culture, 37° C., anaerobic; pH monitored at various time points; FIG. 3
Protocol: as §2

Compound | growth of Bacteroides (Bacteroides [1]) | growth of Clostridia (Clostridia [2]) | media pH change, Bifidobacteria (B. lactis / B. infantis) culture (B. lactis) | media pH change, Clostridia culture (Clostridia [3]) | media pH change, Bacteroides culture (Bacteroides [4])
CC(=O)N[C@H]1[C@H]([C@H](O)[C@H](O)CO)O[C@@](O[C@H]2[C@@H](O)[C@@H](CO)O[C@@H](O[C@H]3[C@H](O)[C@@H](O)C(O)O[C@@H]3CO)[C@@H]2O)(C(=O)O)C[C@@H]1O (some centres unmarked) [3′-sialyllactose] | essentially no growth | essentially no growth | – | – | –
sialyllactose | – | – | the pH increased | the pH increased | the pH increased

From patent US20030060445A1, “Nutritional formulation containing prebiotic substances” (priority 2000, published 2003)
